This is an account of results in patent US20030109443A1, “Diagnosing, treating, and preventing cancer using cables” (priority 2001, published 2003).

The subject of assay [1] is Cables mRNA levels in HES cells. Nature of the assay: Northern analysis of Cables mRNA after hormone treatment, HES cells. The assay is classed as cell-based, human. The settings on record: vs untreated controls. The text has this:
FIGS. 15A and 15B are images showing northern analysis of Cables mRNA levels in HES cells (FIG. 15A) and SK-UT2 cells (FIG. 15B) following progesterone treatment.
FIGS. 16A and 16B are images showing northern analysis of Cables mRNA levels in HES cells (FIG. 16A) and SK-UT2 cells (FIG. 16B) following progesterone or estrogen treatment.
(§1) Cell lines have been used to investigate the effect of hormonal regulation on Cables expression, as well as the effect of Cables overexpression on these cells. We have isolated RNA and protein from HES, Ishikawa, and SK-UT2 endometrial cells lines for analysis. The influence of progesterone and estrogen on Cables expression was evaluated in these cells. […] Western analysis confirmed that a protein product was present. Conversely, estrogen reduced the levels of Cables mRNA expression in these cell lines (FIG. 16A). There is was no hormonal effect on Cables mRNA expression in SK-UT2 cells, which are derived from a G3 human uterine cancer (FIGS. 15B and 16B).

Assay [2] concerns Cables mRNA levels in Ishikawa cells. Nature of the assay: Cables mRNA after hormone treatment, Ishikawa cells. The assay is classed as cell-based. The settings on record: vs untreated controls. As for the experimental part:
as §1

Assay [3] has as its target cdk2 (UniProt P24941). Nature of the assay: cell-based or functional assay.

Sequence of Wee1 (P30291 whole entry): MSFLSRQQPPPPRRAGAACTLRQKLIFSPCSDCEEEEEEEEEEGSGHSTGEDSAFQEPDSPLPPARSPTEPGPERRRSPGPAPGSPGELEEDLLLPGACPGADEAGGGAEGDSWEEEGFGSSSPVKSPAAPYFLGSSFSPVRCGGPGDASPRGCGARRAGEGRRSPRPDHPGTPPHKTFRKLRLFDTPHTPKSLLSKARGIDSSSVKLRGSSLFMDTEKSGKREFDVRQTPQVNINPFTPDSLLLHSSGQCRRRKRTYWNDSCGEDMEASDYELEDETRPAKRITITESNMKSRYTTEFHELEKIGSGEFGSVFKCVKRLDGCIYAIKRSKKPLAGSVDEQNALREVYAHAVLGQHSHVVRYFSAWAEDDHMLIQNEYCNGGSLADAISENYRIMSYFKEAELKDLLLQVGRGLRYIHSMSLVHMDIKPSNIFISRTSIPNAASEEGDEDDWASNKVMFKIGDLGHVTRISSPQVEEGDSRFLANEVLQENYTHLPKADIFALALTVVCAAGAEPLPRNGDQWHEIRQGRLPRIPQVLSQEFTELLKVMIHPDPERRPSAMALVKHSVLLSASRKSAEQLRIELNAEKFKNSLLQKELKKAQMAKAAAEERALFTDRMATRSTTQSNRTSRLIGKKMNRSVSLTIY
Sequence of Cables (full length, expressed from a transfected construct) (Q9ESJ1 whole entry): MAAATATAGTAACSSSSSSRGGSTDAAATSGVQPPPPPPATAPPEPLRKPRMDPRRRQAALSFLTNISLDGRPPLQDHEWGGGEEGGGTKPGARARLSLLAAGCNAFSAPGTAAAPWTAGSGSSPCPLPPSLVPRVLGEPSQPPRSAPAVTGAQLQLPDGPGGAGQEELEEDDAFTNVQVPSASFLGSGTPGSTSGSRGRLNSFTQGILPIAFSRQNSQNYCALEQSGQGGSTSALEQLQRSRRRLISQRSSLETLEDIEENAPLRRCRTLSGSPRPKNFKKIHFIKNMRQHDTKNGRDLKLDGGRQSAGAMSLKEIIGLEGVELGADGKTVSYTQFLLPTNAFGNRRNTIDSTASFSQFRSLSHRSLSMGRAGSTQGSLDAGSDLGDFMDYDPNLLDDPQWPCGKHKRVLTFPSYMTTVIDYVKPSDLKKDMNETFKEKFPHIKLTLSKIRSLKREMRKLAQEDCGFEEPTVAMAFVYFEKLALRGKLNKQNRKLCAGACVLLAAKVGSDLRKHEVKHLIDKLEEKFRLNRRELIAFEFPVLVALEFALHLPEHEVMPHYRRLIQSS

Turning to `CC(=O)[C@H]1CC[C@H]2[C@@H]3CCC4=CC(=O)CC[C@]4(C)[C@H]3CC[C@]12C` [Progestin, progesterone], the “Cables mRNA levels” value in assay [1] and in assay [2] was “dose dependent elevation” throughout. In assay [3], “Cables (full length, expressed from a transfected construct)” gave a Y15-phosphorylated cdk2 in stable Cables cell lines against control cell lines (cdk2 immunoprecipitation, phospho-Tyr15 antibody) of 5 fold.

On to “Wee1 (from UniProt P30291 1-646) (enzyme)”, for which the level of tyrosine phosphorylation of cdk2 (cdk2 immunoprecipitation, antiphosphotyrosine western blot, COS7 cells coexpressing Cables and Wee1) (times basal level) in assay [3] came to 30.

Turning to estrogen, the “Cables mRNA levels” value in assay [1] and in assay [2] was “reduced” each time.
